Laboratory results as given in PMC3085948 (Journal of medicinal chemistry, 2011).

Legend:
[1] = Rat or human liver microsome stability; conditions: rat, human, microsomes
rat FAAH = target: T1, rat FAAH (Rattus norvegicus, UniProt P97612); type: biochemical
T1 sequence (P97612 30-579 limits assumed): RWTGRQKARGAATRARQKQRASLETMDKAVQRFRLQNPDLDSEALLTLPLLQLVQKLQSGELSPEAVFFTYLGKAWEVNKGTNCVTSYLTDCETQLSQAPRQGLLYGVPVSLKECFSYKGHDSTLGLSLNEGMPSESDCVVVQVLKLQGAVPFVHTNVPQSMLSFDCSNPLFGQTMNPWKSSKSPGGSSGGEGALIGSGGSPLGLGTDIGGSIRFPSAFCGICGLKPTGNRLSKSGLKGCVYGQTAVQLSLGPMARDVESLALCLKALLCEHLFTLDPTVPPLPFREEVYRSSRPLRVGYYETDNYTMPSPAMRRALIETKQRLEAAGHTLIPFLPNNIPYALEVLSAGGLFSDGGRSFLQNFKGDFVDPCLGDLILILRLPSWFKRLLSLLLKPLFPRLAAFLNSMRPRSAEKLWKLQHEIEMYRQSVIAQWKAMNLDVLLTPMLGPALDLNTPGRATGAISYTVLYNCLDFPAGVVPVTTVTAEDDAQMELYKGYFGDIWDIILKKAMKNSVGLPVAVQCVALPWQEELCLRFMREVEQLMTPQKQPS

[2] = system: chronic constriction injury (CCI) neuropathic pain; assay: CCI mechanical allodynia; type: in vivo, mice; conditions: 50 mg/kg p.o.
human FAAH = assay: FAAH inhibition, human FAAH from transfected COS-7 cells; type: biochemical; conditions: active (S)-enantiomers; hFAAH vs rFAAH
[3] = system: endogenous lipid amide levels (anandamide, PEA, OEA, 2-AG, arachidonic acid); conditions: for effect on endogenous levels of 2-AG / effect on endogenous levels of arachidonic acid / effect on endogenous levels of key lipid amides (anandamide, PEA) / site of effect on lipid levels (brain vs liver): 30 mg/kg i.p., single mouse; for brain lipid amide levels, oral versus intraperitoneal dosing: p.o. 50 mg/kg vs i.p. 30 mg/kg, 3 mice per group
[4] = type: in vivo; conditions: 50 mg/kg oral, data not shown
[5] = system: chronic constriction injury (CCI) neuropathic pain; assay: CCI acetone-induced cold allodynia; type: in vivo, mice; conditions: 50 mg/kg p.o.
[6] = system: common P450 metabolism enzymes; conditions: background statement; cited from earlier work
[7] = system: human ether-a-go-go related gene (hERG); conditions: background statement; cited from earlier work
[8] = system: cannabinoid (CB1 or CB2) or vanilloid receptors; conditions: background statement; cited from earlier work
[9] = in vivo; cited from earlier work
FAAH knockout mice = conditions: cited from earlier work
acute thermal pain = type: in vivo, mice; conditions: i.v. administration

SMILES | half-life [1] [min] | mode of inhibition (Lineweaver–Burk analysis) (rat FAAH) | activity against human versus rat FAAH (human FAAH) | effect on endogenous levels of 2-AG ([3]; 1 h) | effect on endogenous levels of arachidonic acid ([3]; 1 h) | effect on endogenous levels of key lipid amides (anandamide, PEA) ([3]; 1 h) | site of effect on lipid levels (brain vs liver) ([3]; 1 h) | brain lipid amide levels, oral versus intraperitoneal dosing [3] | duration of effect (acute thermal pain) [min] | other results
O=C(c1ncc(-c2ccccn2)o1)C1CCc2cc(OCc3ccccc3)ccc2C1 (stereo not shown) [Compound 18] | 12 to 15 | – | – | – | – | – | – | – | – | –
O=C(c1ncc(-c2ccccn2)o1)C1CCc2cc(Oc3ccccc3)ccc2C1 (stereo not shown) [Compound 12, (6-Phenoxy-1,2,3,4-tetrahydronaphthalen-2-yl)(5-(pyridin-2-yl)oxazol-2-yl)methanone] | – | reversible, competitive inhibitors | no significant distinction | without impacting | minimal impact | increased | observed both in the brain (CNS) and liver (peripheral) | matched and even improved on the results observed with i.p. administration | – | duration of effect on mechanical allodynia [2]: > 6 h; mechanical allodynia, control paws [2]: no effect; mechanical allodynia, paws ipsilateral to CCI surgery [2]: significantly attenuated; time of peak brain anandamide levels ([3]; 50 mg/kg p.o.): 1.5 to 3 h; duration of elevation of brain N-acylethanolamines ([3]; 50 mg/kg p.o., time course up to 9 h): ≥ 9 h; increase in brain levels of PEA and OEA ([3]; p.o. 10, 25 and 50 mg/kg, 1 h): 5.5–7.8 fold; increase in brain anandamide levels ([3]; p.o. 25–50 mg/kg, 1 h): 12–13 fold; cannabimimetic side effects [4]: did not produce catalepsy, hypothermia, or hypomotility; cold allodynia, control paws [5]: no effect; cold allodynia, paws ipsilateral to CCI surgery [5]: significantly attenuated; duration of effect on cold allodynia [5]: > 9 h
O=C(CCCCCCc1ccccc1)c1ncc(-c2ccccn2)o1 [Compound 2] | 2 to 4 | – | no significant distinction | – | – | – | – | – | – | inhibition of common P450 metabolism enzymes [6]: does not significantly inhibit; inhibition of hERG [7]: does not significantly inhibit; binding to cannabinoid (CB1 or CB2) or vanilloid receptors [8]: does not bind; time to establish ketone/alcohol steady state equilibrium [9]: ≤ 15 min; antinociception in FAAH knockout mice (FAAH knockout mice): does not produce antinociception
CN1CC[C@]23c4c5ccc(O)c4O[C@H]2[C@@H](O)C=C[C@H]3[C@H]1C5 [morphine, reference compound] | – | – | – | – | – | – | – | – | 150 | –
O=C(c1ncc(-c2ccccn2)o1)C1Cc2ccc(Oc3ccccc3)cc2C1 (stereo not shown) [Compound 27] | – | – | – | without impacting | minimal impact | increased | – | – | – | –
O=C(O)c1cccc(-c2cnc(C(=O)C3CCc4cc(Oc5ccccc5)ccc4C3)o2)n1 (stereo not shown) [Compound 14, 6-(2-(6-Phenoxy-1,2,3,4-tetrahydronaphthalene-2-carbonyl)oxazol-5-yl)picolinic Acid] | – | reversible, competitive inhibitors | 4 fold | – | – | – | principally seen peripherally (liver) | matched and even improved on the results observed with i.p. administration | 150 | time of maximal effect (acute thermal pain): 30 to 60 min; maximal antinociceptive effect (efficacy) (acute thermal pain; tail flick 52 °C): same maximal effect (efficacy) observed with morphine
